Activity calls are given as the source filed them. The rule behind the calls is not given here.
Tests used:
[1] = test system: A498; test: Growth inhibition of human A498 cells assessed as cell growth inhibition; format: functional
[2] = test system: UO-31; test: Growth inhibition of human UO-31 cells assessed as cell growth inhibition; format: functional
[3] = Acute toxicity in mouse assessed as maximum tolerated dose measured for 24 hrs; details: in vivo
[4] = test system: RXF 393; test: Growth inhibition of human RXF 393 cells assessed as inhibition of cell growth; format: functional
[5] = Plasma concentration in mouse at 100 mg/kg, po by LC-MS/MS analysis; format: ADME, organism-based; details: in vivo
[6] = biological target: T1, Short transient receptor potential channel 4 (Homo sapiens) (UniProt Q9UBN4); test: Agonist activity at human TRPC4 stably expressed in T-REx-293 cells assessed as increase in calcium flux at 10 uM by Fura-2AM dye based fluorescence plate reader assay relative to control; format: cell-based
T1 sequence (whole entry): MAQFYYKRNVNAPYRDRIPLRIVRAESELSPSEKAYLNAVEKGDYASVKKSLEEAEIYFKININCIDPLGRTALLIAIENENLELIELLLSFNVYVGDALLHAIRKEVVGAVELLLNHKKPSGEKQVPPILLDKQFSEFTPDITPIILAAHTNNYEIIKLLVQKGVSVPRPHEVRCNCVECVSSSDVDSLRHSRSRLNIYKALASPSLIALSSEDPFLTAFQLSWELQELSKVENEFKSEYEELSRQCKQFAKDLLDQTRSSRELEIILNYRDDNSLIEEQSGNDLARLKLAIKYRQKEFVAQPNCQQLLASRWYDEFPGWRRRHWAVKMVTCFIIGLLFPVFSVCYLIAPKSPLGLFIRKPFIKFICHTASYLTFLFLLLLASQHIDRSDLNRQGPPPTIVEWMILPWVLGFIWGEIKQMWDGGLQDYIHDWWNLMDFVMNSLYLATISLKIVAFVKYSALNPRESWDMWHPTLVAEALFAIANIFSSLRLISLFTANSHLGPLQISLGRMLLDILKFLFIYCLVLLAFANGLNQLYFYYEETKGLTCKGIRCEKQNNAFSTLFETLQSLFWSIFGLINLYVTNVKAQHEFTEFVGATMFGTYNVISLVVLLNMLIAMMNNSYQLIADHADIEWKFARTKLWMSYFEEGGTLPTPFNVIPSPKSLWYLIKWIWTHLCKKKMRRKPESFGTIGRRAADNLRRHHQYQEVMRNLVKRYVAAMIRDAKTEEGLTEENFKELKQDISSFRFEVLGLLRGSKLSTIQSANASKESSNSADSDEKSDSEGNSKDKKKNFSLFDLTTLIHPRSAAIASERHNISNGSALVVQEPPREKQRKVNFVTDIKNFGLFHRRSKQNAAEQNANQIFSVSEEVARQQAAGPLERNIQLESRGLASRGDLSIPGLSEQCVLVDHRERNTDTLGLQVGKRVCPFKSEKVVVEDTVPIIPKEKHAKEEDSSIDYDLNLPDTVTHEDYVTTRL

[7] = biological target: T2, Short transient receptor potential channel 5 (Homo sapiens, UniProt Q9UL62); test: Agonist activity at human TRPC5 stably expressed in T-REx-293 cells assessed as increase in calcium flux by Fura-2AM dye based fluorescence plate reader assay; format: cell-based
T2 sequence (Q9UL62 whole entry): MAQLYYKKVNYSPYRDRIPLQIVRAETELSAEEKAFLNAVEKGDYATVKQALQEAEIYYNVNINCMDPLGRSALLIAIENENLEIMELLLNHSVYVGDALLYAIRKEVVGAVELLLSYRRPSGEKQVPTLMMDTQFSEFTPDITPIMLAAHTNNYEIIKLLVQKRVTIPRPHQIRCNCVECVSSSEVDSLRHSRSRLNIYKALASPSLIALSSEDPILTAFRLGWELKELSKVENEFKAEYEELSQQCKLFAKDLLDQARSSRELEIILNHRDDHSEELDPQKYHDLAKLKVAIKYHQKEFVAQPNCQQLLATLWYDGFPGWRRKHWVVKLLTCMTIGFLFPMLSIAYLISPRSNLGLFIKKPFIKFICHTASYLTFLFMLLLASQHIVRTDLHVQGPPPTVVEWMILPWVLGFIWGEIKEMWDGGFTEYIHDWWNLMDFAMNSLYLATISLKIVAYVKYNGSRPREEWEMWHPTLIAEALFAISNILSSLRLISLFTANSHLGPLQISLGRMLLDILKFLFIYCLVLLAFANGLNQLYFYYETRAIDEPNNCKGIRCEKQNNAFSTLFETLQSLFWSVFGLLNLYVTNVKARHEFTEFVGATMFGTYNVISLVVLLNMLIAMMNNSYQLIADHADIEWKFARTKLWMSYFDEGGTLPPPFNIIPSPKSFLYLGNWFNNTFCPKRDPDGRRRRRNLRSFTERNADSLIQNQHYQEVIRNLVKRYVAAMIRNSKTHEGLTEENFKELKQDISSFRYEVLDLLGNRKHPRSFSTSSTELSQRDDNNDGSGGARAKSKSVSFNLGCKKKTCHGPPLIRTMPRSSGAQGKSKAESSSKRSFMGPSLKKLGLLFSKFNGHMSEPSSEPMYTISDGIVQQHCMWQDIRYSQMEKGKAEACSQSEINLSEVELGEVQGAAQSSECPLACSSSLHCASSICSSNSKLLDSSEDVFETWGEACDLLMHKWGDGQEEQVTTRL

[8] = biological target: T3, Short transient receptor potential channel 5 (Homo sapiens) (UniProt Q9UL62); test: Agonist activity at human TRPC5 stably expressed in T-REx-293 cells assessed as increase in calcium flux at 10 uM by Fura-2AM dye based fluorescence plate reader assay; format: cell-based; details: filed as agonist
T3 sequence (whole entry): T2 sequence (Q9UL62 whole entry)

[9] = biological target: T1, Short transient receptor potential channel 4 (Homo sapiens); test: Agonist activity at human TRPC4 stably expressed in T-REx-293 cells assessed as increase in calcium flux at 10 uM by Fura-2AM dye based fluorescence plate reader assay; format: cell-based; details: filed as agonist

`CC(C)[C@@]12C[C@@H](OC(=O)COC(=O)c3ccccc3)[C@@](C)(O1)[C@@H]1CC[C@@H](C)[C@H]1[C@@H]2OC(=O)/C=C/c1ccccc1` gave a GI50 [1] of 155 nM, a GI50 [2] of 115 nM and an MTD at 24 h [3] of 0.4 mg/kg. It also gave a GI50 [4] of 282 nM.

In the case of `CC(C)[C@@]12C[C@@H](OC(=O)/C=C/c3ccccc3)[C@@](C)(O1)[C@@H]1CC[C@@H](C)[C@H]1[C@@H]2OC(=O)/C=C/c1ccccc1`, the GI50 [1] is reported as over 100000 nM, the GI50 [2] is reported as over 100000 nM and the GI50 [4] is reported as over 100000 nM.

`CC(C)[C@@]12C[C@@H](OC(=O)[C@H]3CO3)[C@@](C)(O1)[C@@H]1CC[C@@H](C)[C@H]1[C@@H]2OC(=O)/C=C/c1ccccc1` gave a GI50 [1] of 224 nM, a GI50 [2] of 204 nM and a GI50 [4] of 170 nM.

With `CC(C)[C@@]12C[C@@H](OC(=O)COC(=O)/C=C/c3ccccc3)[C@@](C)(O1)[C@@H]1CC[C@@H](C)[C@H]1[C@@H]2OC(=O)/C=C/c1ccccc1` the GI50 [1] was 44 nM, the Cp [5] was 38.7 ng/mL and the GI50 [2] was 66 nM. The MTD at 24 h [3] was 1 mg/kg and the GI50 [4] was 138 nM.

`CC(C)=CC(=O)OCC(=O)O[C@@H]1C[C@]2(C(C)C)O[C@@]1(C)[C@@H]1CC[C@@H](C)[C@H]1[C@@H]2OC(=O)/C=C/c1ccccc1` gave a GI50 [1] of 178 nM, a Cp [5] of 1.5 ng/mL and a GI50 [2] of 240 nM. For the same compound, the MTD at 24 h [3] was 0.4 mg/kg, the Activity [6] was 15% and the EC50 [7] was 1250 nM. For the same compound, the GI50 [4] was 380 nM.

Work on `CC(C)[C@@]12C[C@@H](OS(C)(=O)=O)[C@@](C)(O1)[C@@H]1CC[C@@H](C)[C@H]1[C@@H]2OC(=O)/C=C/c1ccccc1` yielded a GI50 [1] of 145 nM, a GI50 [2] of 389 nM and a GI50 [4] of 427 nM.

For `CCCCCC(=O)OCC(=O)O[C@@H]1C[C@]2(C(C)C)O[C@@]1(C)[C@@H]1CC[C@@H](C)[C@H]1[C@@H]2OC(=O)/C=C/c1ccccc1`, the GI50 [1] was 52 nM, the GI50 [2] was 41 nM and the Activity [8] was “Active”. It also gave an MTD at 24 h [3] of 0.4 mg/kg and a GI50 [4] of 126 nM.

With `CC(=O)OCC(=O)O[C@@H]1C[C@]2(C(C)C)O[C@@]1(C)[C@@H]1CC[C@@H](C)[C@H]1[C@@H]2OC(=O)/C=C/c1ccccc1` the GI50 [1] was 40 nM, the Activity [9] was “Active” and the GI50 [2] was 34 nM. For the same compound, the MTD at 24 h [3] was 0.2 mg/kg, the EC50 [7] was 480 nM and the GI50 [4] was 209 nM.

For `CC(C)[C@@]12C[C@@H](OC(=O)COS(C)(=O)=O)[C@@](C)(O1)[C@@H]1CC[C@@H](C)[C@H]1[C@@H]2OC(=O)/C=C/c1ccccc1`, the GI50 [1] was 1300 nM, the GI50 [2] was 1400 nM and the GI50 [4] was 1100 nM.

`CC(C)[C@@]12C[C@@H](OC(=O)[C@@H]3CO3)[C@@](C)(O1)[C@@H]1CC[C@@H](C)[C@H]1[C@@H]2OC(=O)/C=C/c1ccccc1` gave a GI50 [1] of 2040 nM, a GI50 [2] of 1780 nM and a GI50 [4] of 7900 nM.

— ChEMBL document CHEMBL5143752, “Biological Effects of Modifications of the Englerin A Glycolate” (ACS Med Chem Lett, 2022)
